Source: patent US12358879B2, “Heterocyclic compound” (Takeda Pharmaceutical Company Limited, priority 2019, dated 2025)

System: Skin fibroblasts derived from FA patients (GM4078)
Experiment: RSL3-induced cell death inhibitory activity in skin fibroblasts derived from FA patients (ATP, CellTiter-Glo)
Assay type: cell-based, human
Settings: 3 μmol/l RSL3, 24 hours
Procedure: The effects of the compounds according to the present disclosure were evaluated according to the literature (M. G. Cotticelli et al, J Pharmacol Exp Ther 2019, 369, 47-54.).
Skin fibroblasts derived from FA patients (Coriell Institute for Medical Research, GM4078) were cultured in a culture medium consisting of DMEM (Thermo Fisher Scientific, 11995-065), 10% fetal bovine serum (Thermo Fisher Scientific, 26140-087), 1% GlutaMAX supplement (Thermo Fisher Scientific, 35050-061) and 1% Penicillin-Streptomycin solution (FUJIFILM Wako Pure Chemical Corporation, 168-23191).
For assay, the fibroblasts in the above culture medium were seeded in a 384-well plate at 1,500 cells per well, and the test compound and 3 μmol/l (final concentration) RSL3 were added to the plate the day after seeding. The concentration of the test compound added to the assay plate was 0.01, 0.1, 1 and 10 μmol/l as 4 points, and DMSO was added as a negative control for the test compound and RSL3. Twenty-four hours after the addition of RSL3/the test compound, CellTiter-Glo Luminescent Cell Viability Assay solution (Promega, G7573) was added to the plate to lyse the cells, and ATP was measured as an index of cell viability by detecting chemiluminescence with a plate reader.
RSL3-induced cell death inhibitory activity of the test compound=((X−C)/(T−C))×100 • X: ATP in the RSL3 addition/the test compound addition group, • C: ATP in the RSL3 addition/the test compound non-addition group, • T: ATP in the RSL3 non-addition/the test compound non-addition group

Cn1nc(Nc2cccc3c2OCC3)c2ccc(C(C)(C)O)cc21 [Example 2, 2-{3-[(2,3-dihydro-1-benzofuran-7-yl)amino]-1-methyl-1H-indazol-6-yl}propan-2-ol]
RSL3-induced cell death inhibitory activity (%) at each compound concentration (μmol/l) (compound 0.01 μmol/l): 4.7% | RSL3-induced cell death inhibitory activity (%) at each compound concentration (μmol/l) (compound 0.1 μmol/l): 71.7% | RSL3-induced cell death inhibitory activity (%) at each compound concentration (μmol/l) (compound 1 μmol/l): 95.4% | RSL3-induced cell death inhibitory activity (%) at each compound concentration (μmol/l) (compound 10 μmol/l): 83.5%

Cn1cc(Nc2nn(C)c3cc(C(C)(C)O)ccc23)c(C(F)(F)F)n1 [Example 5, 2-(1-methyl-3-{[1-methyl-3-(trifluoromethyl)-1H-pyrazol-4-yl]amino}-1H-indazol-6-yl)propan-2-ol]
RSL3-induced cell death inhibitory activity (%) at each compound concentration (μmol/l) (compound 0.01 μmol/l): 27.8% | RSL3-induced cell death inhibitory activity (%) at each compound concentration (μmol/l) (compound 0.1 μmol/l): 53.9% | RSL3-induced cell death inhibitory activity (%) at each compound concentration (μmol/l) (compound 1 μmol/l): 84.5% | RSL3-induced cell death inhibitory activity (%) at each compound concentration (μmol/l) (compound 10 μmol/l): 82.7%

Cn1ncc(Nc2nn(C)c3cc(C(C)(C)O)ccc23)c1C(F)(F)F [Example 9, 2-(1-methyl-3-{[1-methyl-5-(trifluoromethyl)-1H-pyrazol-4-yl]amino}-1H-indazol-6-yl)propan-2-ol]
RSL3-induced cell death inhibitory activity (%) at each compound concentration (μmol/l) (compound 0.01 μmol/l): 30.0% | RSL3-induced cell death inhibitory activity (%) at each compound concentration (μmol/l) (compound 0.1 μmol/l): 61.8% | RSL3-induced cell death inhibitory activity (%) at each compound concentration (μmol/l) (compound 1 μmol/l): 96.1% | RSL3-induced cell death inhibitory activity (%) at each compound concentration (μmol/l) (compound 10 μmol/l): 84.6%

COc1cc(-c2cnn(C)c2)ccc1Nc1n[nH]c2cc(C(C)(C)O)ccc12 [Example 12, 2-{3-[2-methoxy-4-(1-methyl-1H-pyrazol-4-yl)anilino]-1H-indazol-6-yl}propan-2-ol]
RSL3-induced cell death inhibitory activity (%) at each compound concentration (μmol/l) (compound 0.01 μmol/l): 33.2% | RSL3-induced cell death inhibitory activity (%) at each compound concentration (μmol/l) (compound 0.1 μmol/l): 57.8% | RSL3-induced cell death inhibitory activity (%) at each compound concentration (μmol/l) (compound 1 μmol/l): 79.9% | RSL3-induced cell death inhibitory activity (%) at each compound concentration (μmol/l) (compound 10 μmol/l): 85.9%

Cn1nc(Nc2cnn3c2CCCC3)c2ccc(C(C)(C)O)cc21 [Example 19, 2-{1-methyl-3-[(4,5,6,7-tetrahydropyrazolo[1,5-a]pyridin-3-yl)amino]-1H-indazol-6-yl}propan-2-ol]
RSL3-induced cell death inhibitory activity (%) at each compound concentration (μmol/l) (compound 0.01 μmol/l): 11.1% | RSL3-induced cell death inhibitory activity (%) at each compound concentration (μmol/l) (compound 0.1 μmol/l): 32.1% | RSL3-induced cell death inhibitory activity (%) at each compound concentration (μmol/l) (compound 1 μmol/l): 58.9% | RSL3-induced cell death inhibitory activity (%) at each compound concentration (μmol/l) (compound 10 μmol/l): 78.9%

CCn1nc(Nc2cn(C)nc2OC)c2ccc(C(C)(C)O)cc21 [Example 36, 2-{1-ethyl-3-[(3-methoxy-1-methyl-1H-pyrazol-4-yl)amino]-1H-indazol-6-yl}propan-2-ol]
RSL3-induced cell death inhibitory activity (%) at each compound concentration (μmol/l) (compound 0.01 μmol/l): 14.0% | RSL3-induced cell death inhibitory activity (%) at each compound concentration (μmol/l) (compound 0.1 μmol/l): 28.5% | RSL3-induced cell death inhibitory activity (%) at each compound concentration (μmol/l) (compound 1 μmol/l): 55.8% | RSL3-induced cell death inhibitory activity (%) at each compound concentration (μmol/l) (compound 10 μmol/l): 86.0%

COc1nn(C)cc1Nc1nn(C(C)C)c2cc(C(C)(C)O)ccc12 [Example 39, 2-{3-[(3-methoxy-1-methyl-1H-pyrazol-4-yl)amino]-1-(propan-2-yl)-1H-indazol-6-yl}propan-2-ol]
RSL3-induced cell death inhibitory activity (%) at each compound concentration (μmol/l) (compound 0.01 μmol/l): 58.0% | RSL3-induced cell death inhibitory activity (%) at each compound concentration (μmol/l) (compound 0.1 μmol/l): 66.4% | RSL3-induced cell death inhibitory activity (%) at each compound concentration (μmol/l) (compound 1 μmol/l): 83.0% | RSL3-induced cell death inhibitory activity (%) at each compound concentration (μmol/l) (compound 10 μmol/l): 93.2%

COc1c(Nc2nn(C)c3cc(C(C)(C)O)ccc23)cnn1CC(C)C [Example 40, 2-(3-{[5-methoxy-1-(2-methylpropyl)-1H-pyrazol-4-yl]amino}-1-methyl-1H-indazol-6-yl)propan-2-ol]
RSL3-induced cell death inhibitory activity (%) at each compound concentration (μmol/l) (compound 0.01 μmol/l): 40.7% | RSL3-induced cell death inhibitory activity (%) at each compound concentration (μmol/l) (compound 0.1 μmol/l): 63.0% | RSL3-induced cell death inhibitory activity (%) at each compound concentration (μmol/l) (compound 1 μmol/l): 98.1% | RSL3-induced cell death inhibitory activity (%) at each compound concentration (μmol/l) (compound 10 μmol/l): 94.9%

COc1nn(C)cc1Nc1nn(C)c2ccc(C(C)(C)O)cc12 [Example 41, 2-{3-[(3-methoxy-1-methyl-1H-pyrazol-4-yl)amino]-1-methyl-1H-indazol-5-yl}propan-2-ol]
RSL3-induced cell death inhibitory activity (%) at each compound concentration (μmol/l) (compound 0.01 μmol/l): 21.3% | RSL3-induced cell death inhibitory activity (%) at each compound concentration (μmol/l) (compound 0.1 μmol/l): 40.8% | RSL3-induced cell death inhibitory activity (%) at each compound concentration (μmol/l) (compound 1 μmol/l): 58.1% | RSL3-induced cell death inhibitory activity (%) at each compound concentration (μmol/l) (compound 10 μmol/l): 71.7%

COc1c(Nc2nn(C)c3cc(C(C)(C)O)cc(F)c23)cnn1CC(C)C [Example 44, 2-(4-fluoro-3-{[5-methoxy-1-(2-methylpropyl)-1H-pyrazol-4-yl]amino}-1-methyl-1H-indazol-6-yl)propan-2-ol]
RSL3-induced cell death inhibitory activity (%) at each compound concentration (μmol/l) (compound 0.01 μmol/l): 38.3% | RSL3-induced cell death inhibitory activity (%) at each compound concentration (μmol/l) (compound 0.1 μmol/l): 61.3% | RSL3-induced cell death inhibitory activity (%) at each compound concentration (μmol/l) (compound 1 μmol/l): 78.4% | RSL3-induced cell death inhibitory activity (%) at each compound concentration (μmol/l) (compound 10 μmol/l): 95.0%

COc1nn(C)cc1Nc1nn(CC2CC2)c2cc(C(C)(C)O)ccc12 [Example 49, 2-{1-(cyclopropylmethyl)-3-[(3-methoxy-1-methyl-1H-pyrazol-4-yl)amino]-1H-indazol-6-yl}propan-2-ol]
RSL3-induced cell death inhibitory activity (%) at each compound concentration (μmol/l) (compound 0.01 μmol/l): 37.8% | RSL3-induced cell death inhibitory activity (%) at each compound concentration (μmol/l) (compound 0.1 μmol/l): 64.9% | RSL3-induced cell death inhibitory activity (%) at each compound concentration (μmol/l) (compound 1 μmol/l): 96.5% | RSL3-induced cell death inhibitory activity (%) at each compound concentration (μmol/l) (compound 10 μmol/l): 93.0%

Cn1nc(Nc2cnn3c2OCCC3)c2cc(F)c(C(C)(C)O)cc21 [Example 56, 2-{3-[(6,7-dihydro-5H-pyrazolo[5,1-b][1,3]oxazin-3-yl)amino]-5-fluoro-1-methyl-1H-indazol-6-yl}propan-2-ol]
RSL3-induced cell death inhibitory activity (%) at each compound concentration (μmol/l) (compound 0.01 μmol/l): 47.4% | RSL3-induced cell death inhibitory activity (%) at each compound concentration (μmol/l) (compound 0.1 μmol/l): 69.3% | RSL3-induced cell death inhibitory activity (%) at each compound concentration (μmol/l) (compound 1 μmol/l): 94.2% | RSL3-induced cell death inhibitory activity (%) at each compound concentration (μmol/l) (compound 10 μmol/l): 90.3%

Cn1nc(NC2CCCCC2)c2cc(C(C)(C)O)ccc21 [Example 59, 2-[3-(cyclohexylamino)-1-methyl-1H-indazol-5-yl]propan-2-ol]
RSL3-induced cell death inhibitory activity (%) at each compound concentration (μmol/l) (compound 0.01 μmol/l): 48.0% | RSL3-induced cell death inhibitory activity (%) at each compound concentration (μmol/l) (compound 0.1 μmol/l): 65.9% | RSL3-induced cell death inhibitory activity (%) at each compound concentration (μmol/l) (compound 1 μmol/l): 93.3% | RSL3-induced cell death inhibitory activity (%) at each compound concentration (μmol/l) (compound 10 μmol/l): 95.9%

COc1nn(C)cc1Nc1nn(C2CCC2)c2cc(C(C)(C)O)ccc12 [Example 68, 2-{1-cyclobutyl-3-[(3-methoxy-1-methyl-1H-pyrazol-4-yl)amino]-1H-indazol-6-yl}propan-2-ol]
RSL3-induced cell death inhibitory activity (%) at each compound concentration (μmol/l) (compound 0.01 μmol/l): 49.5% | RSL3-induced cell death inhibitory activity (%) at each compound concentration (μmol/l) (compound 0.1 μmol/l): 66.1% | RSL3-induced cell death inhibitory activity (%) at each compound concentration (μmol/l) (compound 1 μmol/l): 95.5% | RSL3-induced cell death inhibitory activity (%) at each compound concentration (μmol/l) (compound 10 μmol/l): 93.7%

COc1nn(C)cc1Nc1nn(C2CCC2)c2ccc(C(C)(C)O)cc12 [Example 70, 2-{1-cyclobutyl-3-[(3-methoxy-1-methyl-1H-pyrazol-4-yl)amino]-1H-indazol-5-yl}propan-2-ol]
RSL3-induced cell death inhibitory activity (%) at each compound concentration (μmol/l) (compound 0.01 μmol/l): 12.1% | RSL3-induced cell death inhibitory activity (%) at each compound concentration (μmol/l) (compound 0.1 μmol/l): 86.1% | RSL3-induced cell death inhibitory activity (%) at each compound concentration (μmol/l) (compound 1 μmol/l): 89.2% | RSL3-induced cell death inhibitory activity (%) at each compound concentration (μmol/l) (compound 10 μmol/l): 82.2%

COc1nn(C)cc1Nc1nn(CC2CC2(F)F)c2cc(C(C)(C)O)ccc12 (stereo not drawn) [Example 77, 2-{1-[(2,2-difluorocyclopropyl)methyl]-3-[(3-methoxy-1-methyl-1H-pyrazol-4-yl)amino]-1H-indazol-6-yl}propan-2-ol]
RSL3-induced cell death inhibitory activity (%) at each compound concentration (μmol/l) (compound 0.01 μmol/l): 17.7% | RSL3-induced cell death inhibitory activity (%) at each compound concentration (μmol/l) (compound 0.1 μmol/l): 46.4% | RSL3-induced cell death inhibitory activity (%) at each compound concentration (μmol/l) (compound 1 μmol/l): 76.2% | RSL3-induced cell death inhibitory activity (%) at each compound concentration (μmol/l) (compound 10 μmol/l): 77.1%

COCc1nn(C)cc1Nc1nn(C2CCC2)c2cc(C(C)(C)O)ccc12 [Example 82, 2-(1-cyclobutyl-3-{[3-(methoxymethyl)-1-methyl-1H-pyrazol-4-yl]amino}-1H-indazol-6-yl)propan-2-ol]
RSL3-induced cell death inhibitory activity (%) at each compound concentration (μmol/l) (compound 0.01 μmol/l): 1.9% | RSL3-induced cell death inhibitory activity (%) at each compound concentration (μmol/l) (compound 0.1 μmol/l): 41.6% | RSL3-induced cell death inhibitory activity (%) at each compound concentration (μmol/l) (compound 1 μmol/l): 64.0% | RSL3-induced cell death inhibitory activity (%) at each compound concentration (μmol/l) (compound 10 μmol/l): 73.8%

COCc1nn(C)cc1Nc1nn(CC2CC2)c2cc(C(C)(C)O)ccc12 [Example 84, 2-[1-(cyclopropylmethyl)-3-{[3-(methoxymethyl)-1-methyl-1H-pyrazol-4-yl]amino}-1H-indazol-6-yl]propan-2-ol]
RSL3-induced cell death inhibitory activity (%) at each compound concentration (μmol/l) (compound 0.01 μmol/l): 12.4% | RSL3-induced cell death inhibitory activity (%) at each compound concentration (μmol/l) (compound 0.1 μmol/l): 47.5% | RSL3-induced cell death inhibitory activity (%) at each compound concentration (μmol/l) (compound 1 μmol/l): 75.7% | RSL3-induced cell death inhibitory activity (%) at each compound concentration (μmol/l) (compound 10 μmol/l): 73.8%
